Assay type in all cases: cell-based, Human
Data set [1] deals with Ovca429TβRIII cells. As to the kind of experiment: Matrigel invasion assay, Ovca429TβRIII cells. Particulars: Ovca429TβRIII cells treated with blebbistatin, vs untreated. The protocol: (§1) Cancer cells were seeded at a cell density of 25,000-70,000 on either Matrigel coated or uncoated filters and allowed to invade for 18-24 hours towards 10% FBS in the lower chamber. Cells invading and migrating through the Matrigel layer were visualized and counted as described^9. Percent cell migration or invasion was determined as the fraction of total cells that invaded through the filter. Blebbistatin (100 μM)^10 where used, was added to the top chamber of the transwell and migration and invasion allowed to proceed. Each assay was set up in duplicate, and each experiment was conducted at least 3 times with 4 random fields from a 10× magnification analyzed for each membrane.

In data set [2] the test system is IGROV. As to the kind of experiment: Transwell migration assay, IGROV cells. Particulars: blebbistatin 100 μM in top chamber, vs untreated. The protocol: as §1
Data set [3] deals with IGROV. As to the kind of experiment: Matrigel invasion assay, IGROV cells. Particulars: blebbistatin 100 μM in top chamber, 18-24 hours, vs untreated. The protocol: as §1
The test system of data set [4] is IGROV. Nature of the data set: Viability of IGROV cells under blebbistatin. Particulars: concentration that disrupted cortical pMLC localization.
The subject of data set [5] is Ovca429TβRIII cells. Nature of the data set: Magnetic tweezers assay (3DFM) of cell stiffness, Ovca429TβRIII cells. Particulars: Ovca429TβRIII cells treated with blebbistatin. The protocol:
(§2) The Three Dimensional Force Microscope (3DFM)^11 was used for applying controlled and precise 60-100 pN local force (FIG. 6) on 2.8 micron magnetic beads (DYNAL Biotech, Oslo, Norway) coated with fibronectin (Sigma Aldrich, St. Louis, Mo.). Briefly, cells were plated on coverslips followed by addition of the beads. Cells and beads were incubated for 30 minutes followed by force application and resultant bead displacements were recorded and analyzed. The displacement of the beads was recorded with high-speed video camera (Pulnix, JAI, Ca) and tracked using Video Spot Tracker (http://cismm.cs.unc.edu). The mean creep compliance was calculated from the tracked displacements as described. Spring constants were derived by fitting the compliance curves to a Jeffrey's model for viscoelastic liquids (FIG. 6). […]
(§3) To further examine the relationship between cancer cell deformability and invasive potential, the effective shear modulus (here on referred to as the stiffness, k), of the cell was calculated by fitting a modified Kelvin Voigt model^12 to the compliance using a least squares fit (see FIG. 6). […] In addition, the variability in stiffness correlates directly with a specific measure of metastatic progression as determined using in vitro three-dimensional invasion assays.

For data set [6], the system named is IGROV. As to the kind of experiment: Magnetic tweezers assay (3DFM) of cell stiffness, IGROV cells. Conditions: blebbistatin 100 μm added 30 mins before beads, vs untreated. How it is done: as §2, §3
In data set [7] the test system is IGROV. As to the kind of experiment: Immunofluorescence of cortical pMLC localization, IGROV cells. Conditions: blebbistatin. How it is done:
Immunoflourescence was performed essentially as described previously^9 and images were obtained using a Nikon inverted microscope.

This note sets out measurements from patent publication US20130089869A1, “Methods For and Uses of Mechanical Stiffness Profiling of Cancer Cells” (DUKE UNIVERSITY, priority 2011, published 2013).

Turning to `Cc1ccc2c(c1)C(=O)C1(O)CCN(c3ccccc3)C1=N2` (centres unmarked) [Blebbistatin], the increase of invasiveness entry with Ovca429TβRIII cells [1] is “four fold”. The “increase of cell migration” value with IGROV [2] is listed as 4 fold. Also, the “increase of cell invasion” value in the data set with IGROV [3] is given as 2.5 fold. Also, the effect on viability result with IGROV [4] is given as “did not affect viability”. Besides, the “stiffness K (spring constant)” value in the data set on Ovca429TβRIII cells [5] is listed as 1.48 Pa. Besides, the decrease of stiffness entry in the data set on Ovca429TβRIII cells [5] (vs untreated) was “two fold”. Also, the “decrease of cell stiffness” value in the data set on IGROV [6] worked out at 2 fold. Besides, in the data set with IGROV [7], the “cortical pMLC localization” value is given as “disrupted cortical pMLC localization”.
